# Results taken from patent US6346252B1, “Method of obtaining an antibacterial and/or antifungal extract from the algae, bonnemaisoniacea” (Algues et Mer (S.A.R.L.), priority 1996, dated 2002).
# Test system: Pseudomonas aeruginosa strain
# Assay: embedding of 1 ml and 0.1 ml samples of mother solution in PCA medium
# Assay type: cell-based
# Details: for bacteria count in embedding: PCA medium 48 hours, strain at 1.9 10^8, bromoform 60 mg/l
# Protocol: In order to test that the antibacterial and/or antifungal action is in fact related to a group of halogenated molecules of low molecular weight, an aqueous solution of 60 mg/l bromoform was prepared and its action compared with that of a permeate of nanofiltration at the threshold of 400 Daltons which therefore only contained micromolecules, in particular halogenated molecules. After embedding 1 ml and 0.1 ml samples in a PCA medium for 48 hours from a mother solution containing the product to be tested and the Pseudomonas aeruginosa strain at a concentration of 1.9 10^8, the results in the following table were obtained.
# In this table, and in the following tables, “>>” means that bacteria developed and could not be counted.
# Also, the microfiltration permeate was fractionated by subjecting it to ultrafiltration (uF) or nanofiltration (nF), and the antibacterial action on the Pseudomonas strain was measured for each fraction and at different times in accordance with the protocol described below. The following results were obtained:
# Other tests were conducted to measure the influence of pH on the extract's activity and its ageing. Acidification was carried out during the so-called acidification stage of the method for obtaining the extract of the invention, using citric acid.
smiles,measurement,setting,value
"BrC(Br)Br [Bromoform, bromoform]",bacteria count in embedding,0.1 ml embedding,>>
same,bacteria count in embedding,1 ml embedding,>>
same,action against the Pseudomonas aeruginosa strain,"bromoform at 1.5 times the concentration in the extract, permeate on second day after production",no action
